Test results taken from patent EP4781986A1, “PHARMACEUTICAL COMPOSITION HAVING IMPROVED PHARMACOKINETIC PROPERTIES” (Sichuan Purity Pharmaceutical Co., Ltd., priority 2023, dated 2025).
Read-outs that look alike come from different tables or passages of the source. Each block holds one molecule with its values, some of them ahead of it.

Assays:
CGRP receptor complex = target: T1, CGRP receptor complex (Homo sapiens, UniProt O60894+Q16602); assay: determination of cell functional antagonism - cAMP determination; format: cell-based; details: inhibition of CGRP-stimulated cAMP formation in SK-N-MC cells
T1 construct: SK-N-MC (neuroepithelioma cells) from National Science and Technology Infrastructure; host or cells: SK-N-MC
T1 sequence (Q16602 23-461): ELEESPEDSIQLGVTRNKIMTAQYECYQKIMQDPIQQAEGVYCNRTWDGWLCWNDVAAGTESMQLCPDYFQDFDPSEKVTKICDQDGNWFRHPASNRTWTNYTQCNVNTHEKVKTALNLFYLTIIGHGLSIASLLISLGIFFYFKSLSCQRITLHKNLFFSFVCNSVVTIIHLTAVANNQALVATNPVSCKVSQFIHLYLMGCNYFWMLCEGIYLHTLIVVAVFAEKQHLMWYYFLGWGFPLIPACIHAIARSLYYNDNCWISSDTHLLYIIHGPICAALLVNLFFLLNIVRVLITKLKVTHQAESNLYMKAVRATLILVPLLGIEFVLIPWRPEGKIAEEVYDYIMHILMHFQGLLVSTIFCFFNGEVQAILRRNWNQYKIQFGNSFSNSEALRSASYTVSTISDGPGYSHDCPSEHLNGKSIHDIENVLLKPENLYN
T1 sequence (O60894 27-148): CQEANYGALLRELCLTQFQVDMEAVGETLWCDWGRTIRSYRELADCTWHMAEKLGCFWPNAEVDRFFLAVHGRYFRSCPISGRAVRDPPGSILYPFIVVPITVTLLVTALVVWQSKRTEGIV
Method: A CGRP receptor complex was coupled with Gs in G protein, the combination of CGRP and CGRP receptor complex led to Gs activation, and cAMP (3',5'-cyclic adenosine monophosphate) was produced.
The ability of the compound of the present invention to inhibit CGRP-stimulated cAMP formation in SK-N-MC cells was determined.
SK-N-MC (neuroepithelioma cells) from National Science and Technology Infrastructure - Biomedical Materials and Cell Resources.
The SK-N-MC cells were resuscitated and cultured in advance, and a cell confluence degree should be 70%-80% before use.
4.2 A sample dilution, a tested compound and α-CGRP (human) were prepared.
The SK-N-MC cells were digested, centrifuged, then resuspended with the sample dilution, and inoculated into a 384-well plate. Each well was added with the α-CGRP (human) and the tested compound respectively, and blown and mixed evenly. The well plate was adhered with a sealing film, and placed on an enzyme-labeled incubator to incubate at 25°C.
4.4 cAMP determination: carried out according to LANCE Ultra cAMP Kit specification EucAMP tracer and ULight-anti-cAMP working solutions were prepared in the dark, respectively added into the well plate, and blown and mixed evenly. The well plate was adhered with a sealing film, and placed on an enzyme-labeled incubator to incubate at 25°C.
4.5 A luminescence value was read by a chemiluminescent module of an automatic enzyme-labeled instrument.

[1] = PK properties in SD rats with different concentrations of alkyl glycoside (0.05% and 5% DDM); format: in vivo; details: intranasal, 5% DDM vs without DDM
From the text: During preparation of a test sample in the Test Example 7, drug solution groups with 0.05% and 5% dodecyl-β-D-maltosides (DDM) were established and prepared in parallel, so as to compare and observe changes of PK properties in rats administered with the drug solution groups with two different concentrations of dodecyl-β-D-maltosides (DDM).

[2] = PK properties in SD rats with or without 0.2% alkyl glycoside (DDM); format: in vivo; details: for Tmax: Sprague-Dawley, rat, in vivo, inhaled or intranasal
From the text: During preparation of a test sample in the Test Example 5, a drug solution group with 0.2% dodecyl-β-D-maltoside (DDM) was also established and prepared in parallel, so as to compare and observe changes of PK properties in rats administered with the drug solution group with 0.2% dodecyl-β-D-maltoside (DDM) and the drug solution group without dodecyl-β-D-maltoside (DDM).

[3] = oral administration with alkyl glucoside, according to CN202180077330.9; cited from earlier work
[4] = stability test in liver microsomes (human); format: in vitro ADME; details: for % remaining (60 min): Human liver microsomes
Method: (§1) The stability of the compound of the present invention in liver microsomes of rat, monkey and human was determined. Tested compounds of the present invention were the compounds in Examples 6 and 8 , and a control drug was Zavegepant.
(§2) 3.2 An appropriate amount of liver microsome solution was transferred into a 1 mL 96-deep-well plate, added with a tested drug liquid (or a probe substrate solution), and pre-incubated in a thermal mixer at 37°C for 5 minutes. Two parts of mixed solutions were taken out from the system and added with 1×PBS to replace NADPH, and the mixed solutions were taken out at 0 and 60 minutes respectively, and added with methanol (containing an internal standard) to terminate the reaction. In the remaining mixed system, each well was added with NADPH to start the reaction. In the tested substance group, mixed solutions were taken out from the system at 0, 5, 15, 30, 45 and 60 minutes, and in the control group, mixed solutions were taken out from the system at 0, 30 and 60 minutes, and the mixed solutions were added methanol (containing an internal standard) to terminate the reaction. All samples of the terminated reaction were mixed evenly and centrifuged in a centrifuge at 3800 rpm for 15 minutes, and the supernatant was taken for LC-MS/MS analysis.
(§3) A peak area was determined by an extracted ion chromatogram. A slope value k was determined by linear regression of a remaining percentage of a parent drug relative to a natural logarithm of an incubation time curve. According to the slope, in-vitro half-life periods (t1/2) were respectively calculated, and in-vitro intrinsic clearance rates (CLint, represented by µL/min/mg protein) were calculated. Calculation formulas were as follows: t1/2 = ln2/k = 0.693/k; and CLint = 0.693/t1/2 /liver microsome protein concentration [formula]

[5] = stability test in liver microsomes (monkey); format: in vitro ADME
Method: as §1, §2, §3

[6] = stability test in liver microsomes (rat); format: in vitro ADME; details: for % remaining (60 min): Rat liver microsomes
Method: as §1, §2, §3

[7] = system: Plasma of cynomolgus monkey; assay: plasma protein binding rate test, equilibrium dialysis (monkey); format: in vitro ADME; details: 1 µM, 37°C, 6 hours
Method: (§4) Protein binding rates of the compound of the present invention in plasma of rat, monkey and human were determined by an equilibrium dialysis method. Tested compounds of the present invention were the compounds in Examples 6 and 8.
(§5) 3.1 A dry dialysis membrane was rinsed with ultrapure water for 2-3 times, and then soaked in a phosphate buffer for 1 hour for later use. Polytetrafluoroethylene module was soaked in 20% ethanol for 30 minutes, and then surface moisture was dried with dust-free paper for later use. The pretreated dialysis membrane was assembled into a dialysis plate according to the product specification, and one side (receptor compartment) of an osmotic membrane in each dialysis well was added with 100 µL of receptor fluid (100 mM phosphate buffer solution plus 0.002% Tween 80).
(§6) 3.2 The plasma was put into a centrifuge tube, a working solution of a tested substance was added into the plasma, wherein a final concentration was 1 µM, and the mixture was turned upside down and mixed evenly (this step was carried out in ice bath). 20 µL of drug-containing plasma each was taken, and was respectively transferred to a 96-well sample plate according to two parts in parallel, and stored in a refrigerator at -20°C as a T0 sample.
(§7) 3.3 Another 100 µL of the above drug-containing plasma was transferred to the other side (sample compartment) of the membrane in the dialysis device according to two parts in parallel, and incubated under vibration at a constant temperature of 37°C for 6 hours. […]
(§8) A plasma protein binding rate and a recovery rate of the compound in plasma were calculated by the following formulas: dissociation percentage (%) = CB /CA; [formula] plasma protein binding rate (fb%) = 1−dissociation percentage (%); [formula] recovery rate (%) = (CB+CA)/CT0 [formula] wherein CB was a concentration of the compound in the receptor fluid after equilibrium dialysis; CA was a concentration of the compound in the drug-containing plasma after equilibrium dialysis; and CT0 was an initial concentration of the compound in plasma.

Plasma of human = assay: plasma protein binding rate test, equilibrium dialysis (human); format: in vitro ADME; details: 1 µM, 37°C, 6 hours
Method: as §4, §5, §6, §7, §8

Plasma of SD rat = assay: plasma protein binding rate test, equilibrium dialysis (rat); format: in vitro ADME; details: 1 µM, 37°C, 6 hours
Method: as §4, §5, §6, §7, §8

Structure (SMILES): Cc1cc(C[C@@H](NC(=O)N2CCC(c3cc4c([nH]c3=O)CCCS4)CC2)C(=O)N2CCN(C3CCN(C)CC3)CC2)cc2cn[nH]c12 [Example 12, (R)-N-(3-(7-methyl-1H-indazole-5-yl)-1-(4-(1-methylpiperidine-4-yl)piperazine-1-yl)-1-oxopropan-2-yl)-4-(6-oxo-3,4,5,6-tetrahydro-2H-thiopyrano[3,2-b]pyridine-7-yl)piperidine-1-formamide]
IC50 (CGRP receptor complex): 16.9 nM

Structure (SMILES): Cc1cc(C[C@@H](NC(=O)N2CCC(c3cc4c([nH]c3=O)SCC4)CC2)C(=O)N2C3CCC2CC(N2CCCCC2)C3)cc2cn[nH]c12 (stereo partly drawn) [Example 34, N-((2R)-3-(7-methyl-1H-indazole-5-yl)-1-oxo-1-(3-(piperidine-1-yl)-8-azabicyclo[3.2.1]octane-8-yl)propan-2-yl)-4-(6-oxo-2,3,6,7-tetrahydrothieno[2,3-b]pyridine-5-yl)piperidine-1-formamide]
IC50 (CGRP receptor complex): 0.2 nM

IC50 (CGRP receptor complex): 26 nM
Structure (SMILES): Cc1cc(C[C@@H](NC(=O)N2CCC(c3cc4c([nH]c3=O)C3CCC4C3)CC2)C(=O)N2CCN(C3CCN(C)CC3)CC2)cc2cn[nH]c12 (stereo partly drawn) [Example 45, N-((R)-3-(7-methyl-1H-indazole-5-yl)-1-(4-(1-methylpiperidine-4-yl)piperazine-1-yl)-1-oxopropan-2-yl)-4-(2-oxo-1,2,5,6,7,8-hexahydro-5,8-methanoquinoline-3-yl)piperidine-1-formamide]

Structure (SMILES): Cc1cc(C[C@@H](NC(=O)N2CCC(c3cc4c([nH]c3=O)SCCC4)CC2)C(=O)N2CCC(N3CCN(C)CC3)CC2)cc2cn[nH]c12 [Example 25, (R)-N-(3-(7-methyl-1H-indazole-5-yl)-1-(4-(4-methylpiperazine-1-yl)piperidine-1-yl)-1-oxopropan-2-yl)-4-(7-oxo-3,4,7,8-tetrahydro-2H-thiopyrano[2,3-b]pyridine-6-yl)piperidine-1-formamide]
IC50 (CGRP receptor complex): 0.79 nM

Structure (SMILES): Cc1cc(C[C@@H](NC(=O)N2CCC(c3cc4c([nH]c3=O)CCSC4)CC2)C(=O)N2CCN(C3CCN(C)CC3)CC2)cc2cn[nH]c12 [Example 15, (R)-N-(3-(7-methyl-1H-indazole-5-yl)-1-(4-(1-methylpiperidine-4-yl)piperazine-1-yl)-1-oxopropan-2-yl)-4-(2-oxo-1,5,7,8-tetrahydro-2H-thiopyrano[4,3-b]pyridine-3-yl)piperidine-1-formamide]
IC50 (CGRP receptor complex): 10.1 nM

Structure (SMILES): Cc1cc(C[C@@H](NC(=O)C2CCN(c3cc4c([nH]c3=O)SCCC4)CC2)C(=O)N2CCN(C3CCN(C)CC3)CC2)cc2cn[nH]c12 [Example 21, (R)-N-(3-(7-methyl-1H-indazole-5-yl)-1-(4-(1-methylpiperidine-4-yl)piperazine-1-yl)-1-oxopropan-2-yl)-1-(7-oxo-3,4,7,8-tetrahydro-2H-thiopyrano[2,3-b]pyridine-6-yl)piperidine-4-formamide]
IC50 (CGRP receptor complex): 590 nM

Structure (SMILES): Cc1cc(C[C@@H](NC(=O)N2CCC(c3cc4c([nH]c3=O)SCC=C4)CC2)C(=O)N2CCN(C3CCN(C)CC3)CC2)cc2cn[nH]c12 [Example 48, (R)-N-(3-(7-methyl-1H-indazole-5-yl)-1-(4-(1-methylpiperidine-4-yl)piperazine-1-yl)-1-oxopropan-2-yl)-4-(7-oxo-7,8-dihydro-2H-thiopyrano[2,3-b]pyridine-6-yl)piperidine-1-formamide]
IC50 (CGRP receptor complex): 0.15 nM

Tmax(DDM 5%)/ Tmax(DDM 0%) [1]: 50%
Tmax ([2]; 0.2% DDM): 12.5 min
Tmax ([2]; not added with DDM (0%DDM)): 15 min
Tmax(DDM 0.2%)/ Tmax(DDM 0%) ([2]; intranasal, 0.2% dodecyl-β-D-maltoside (DDM) vs without DDM): 83.6%
% remaining (60 min) [4]: 57.5%
% remaining (60 min) ([5]; Monkey liver microsomes): 72.1%
% remaining (60 min) [6]: 95.5%
Structure (SMILES): Cc1cc(C[C@@H](NC(=O)N2CCC(c3cc4ccccc4[nH]c3=O)CC2)C(=O)N2CCN(C3CCN(C)CC3)CC2)cc2cn[nH]c12 [Zavegepant, zavegepant, reference compound]
AUC [3]: no obvious changes
Cmax [3]: no obvious changes
Tmax [3]: prolonged to some extent

Structure (SMILES): [2H]C([2H])([2H])N1CCC(N2CCN(C(=O)[C@@H](Cc3cc(C)c4[nH]ncc4c3)NC(=O)N3CCC(c4cc5c([nH]c4=O)SCC5)CC3)CC2)CC1 [Example 29, (R)-N-(3-(7-methyl-1H-indazole-5-yl)-1-(4-(1-(methyl-d3)piperidine-4-yl)piperazine-1-yl)-1-oxopropan-2-yl)-4-(6-oxo-2,3,6,7-tetrahydrothieno[2,3-b]pyridine-5-yl)piperidine-1-formamide]
fb (%) [7]: 56.1%
fb (%) (Plasma of human): 50.2%
half-life at 1 µM ([4]; Human liver microsomes 0.5 mg/mL, 1.0 µM): > 120 min
% remaining (60 min) [4]: 115%
fb (%) (Plasma of SD rat): 64.3%
microsomal CLint at 1 µM ([5]; Monkey liver microsomes): 1.6 µL/min/mg
half-life at 1 µM ([5]; Monkey liver microsomes 0.5 mg/mL, 1.0 µM): > 120 min
% remaining (60 min) ([5]; Monkey liver microsomes): 98.9%
half-life at 1 µM ([6]; Rat liver microsomes 0.5 mg/mL, 1.0 µM): > 120 min
% remaining (60 min) [6]: 105%

Structure (SMILES): [2H]C1([2H])SCc2cc(C3CCN(C(=O)N[C@H](Cc4cc(C)c5[nH]ncc5c4)C(=O)N4CCN(C5CCN(C)CC5)CC4)CC3)c(=O)[nH]c21 [Example 14, (R)-N-(3-(7-methyl-1H-indazole-5-yl)-1-(4-(1-methylpiperidine-4-yl)piperazine-1-yl)-1-oxopropan-2-yl)-4-(2-oxo-1,2,5,7-tetrahydrothieno[3,4-b]pyridine-3-yl-7,7-d2)piperidine-1-formamide]
IC50 (CGRP receptor complex): 6.85 nM
